Measured values taken from patent EP4813991A1 (iLeadBMS Co., Ltd., priority 2023, dated 2025).
pIC50: −log10 of the molar value.

How the values were obtained:
MDA-MB-436 cells = assay: Breast cancer cell proliferation inhibitory activity, MDA-MB-436; format: cell-based; conditions: Homo sapiens, 72 hours, CellTiter Glo, relative IC50
Procedure: Experiments were conducted using three types of breast cancer cell lines to measure the cell proliferation inhibitory ability of each Example compound. For HCC70 cells, 100 µL of cell suspension was dispensed into a 96-well plate using RPMI1640 (Invitrogen) medium containing 10 % FBS, followed by incubation in a cell incubator at 37 °C and 5 % CO2. For BT-20 cells, 100 µL of cell suspension was dispensed into a 96-well plate using EMEM (Invitrogen) medium containing 10 % FBS, followed by incubation in a cell incubator at 37 °C and 5 % CO2. For MDA-MB-436 cells, 100 µL of cell suspension was dispensed into a 96-well plate using L-15 (Invitrogen) medium containing 10 % FBS, followed by incubation in a cell incubator at 37 °C and 0 % CO2. The next day, each Example compound dissolved and diluted in DMSO across 9 concentration ranges and a DMSO control group were treated on the cells for 72 hours. After completion of the compound treatment, 100 µL of CellTiter Glo (Promega) reagent was added to each well of the 96-wellplate, followed by shaking for 10 minutes and standing at room temperature for 10 minutes. After inserting the 96-well plate into an Envision plate reader (PerkinElmer), luminescence signals were measured. Relative IC50 values were calculated by fitting a dose-response curve using XL fit (IDBS Ltd) software.
The breast cancer cell proliferation inhibitory activities of the Example compounds measured by the method described above were evaluated according to the following criteria, and the results are presented in Table 15.

CDK12 [1] = target: T1, CDK12 (Homo sapiens, UniProt Q9NYV4); assay: Cellular CDK12 inhibitory activity assay (Ser2 phosphorylation of RNA polymerase II subunit B1 CTD in MDA-MB-231 cells); format: cell-based; set-up: using MDA-MB-231 breast cancer cells; endogenous in cells; host or cells: MDA-MB-231; conditions: MDA-MB-231 cells, 6 hours treatment; read-out: pRpbl CTD S2 IC50
T1 sequence (Q9NYV4 whole entry, species assumed): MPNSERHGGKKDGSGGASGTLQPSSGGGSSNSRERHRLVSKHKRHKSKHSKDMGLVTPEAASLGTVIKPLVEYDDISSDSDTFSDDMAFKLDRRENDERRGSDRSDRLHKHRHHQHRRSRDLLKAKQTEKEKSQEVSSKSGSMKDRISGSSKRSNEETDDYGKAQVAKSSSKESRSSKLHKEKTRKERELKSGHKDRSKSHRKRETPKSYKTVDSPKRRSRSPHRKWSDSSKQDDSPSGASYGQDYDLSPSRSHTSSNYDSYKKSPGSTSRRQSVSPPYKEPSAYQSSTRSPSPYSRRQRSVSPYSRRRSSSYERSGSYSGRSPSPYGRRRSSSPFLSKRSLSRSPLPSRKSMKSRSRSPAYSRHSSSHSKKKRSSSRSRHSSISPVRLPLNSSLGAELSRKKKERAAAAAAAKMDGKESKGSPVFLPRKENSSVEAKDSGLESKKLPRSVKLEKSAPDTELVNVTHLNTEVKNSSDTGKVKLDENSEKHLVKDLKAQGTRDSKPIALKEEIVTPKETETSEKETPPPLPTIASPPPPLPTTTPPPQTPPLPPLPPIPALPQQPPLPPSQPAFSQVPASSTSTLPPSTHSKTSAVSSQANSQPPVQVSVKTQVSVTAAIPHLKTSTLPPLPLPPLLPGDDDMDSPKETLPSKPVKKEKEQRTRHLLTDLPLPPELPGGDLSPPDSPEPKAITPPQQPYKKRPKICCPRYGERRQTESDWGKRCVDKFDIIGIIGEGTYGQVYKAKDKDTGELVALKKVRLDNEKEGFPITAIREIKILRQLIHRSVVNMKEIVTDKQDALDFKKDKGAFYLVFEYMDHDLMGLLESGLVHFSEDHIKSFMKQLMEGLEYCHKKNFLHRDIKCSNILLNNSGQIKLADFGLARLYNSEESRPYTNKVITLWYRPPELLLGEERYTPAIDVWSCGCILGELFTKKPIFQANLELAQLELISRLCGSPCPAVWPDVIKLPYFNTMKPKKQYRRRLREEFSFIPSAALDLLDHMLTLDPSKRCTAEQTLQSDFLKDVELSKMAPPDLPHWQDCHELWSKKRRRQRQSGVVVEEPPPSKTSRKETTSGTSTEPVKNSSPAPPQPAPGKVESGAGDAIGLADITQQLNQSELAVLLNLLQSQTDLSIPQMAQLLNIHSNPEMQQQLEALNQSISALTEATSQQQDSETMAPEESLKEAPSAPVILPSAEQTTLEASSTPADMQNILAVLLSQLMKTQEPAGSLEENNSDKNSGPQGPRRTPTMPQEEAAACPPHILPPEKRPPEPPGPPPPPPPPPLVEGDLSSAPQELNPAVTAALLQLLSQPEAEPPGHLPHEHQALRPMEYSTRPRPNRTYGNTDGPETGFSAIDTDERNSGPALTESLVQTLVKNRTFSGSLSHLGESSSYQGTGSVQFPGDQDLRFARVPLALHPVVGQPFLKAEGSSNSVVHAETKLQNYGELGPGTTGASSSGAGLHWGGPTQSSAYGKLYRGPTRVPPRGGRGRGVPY
T1 sequence (O75909 whole entry partner, species assumed): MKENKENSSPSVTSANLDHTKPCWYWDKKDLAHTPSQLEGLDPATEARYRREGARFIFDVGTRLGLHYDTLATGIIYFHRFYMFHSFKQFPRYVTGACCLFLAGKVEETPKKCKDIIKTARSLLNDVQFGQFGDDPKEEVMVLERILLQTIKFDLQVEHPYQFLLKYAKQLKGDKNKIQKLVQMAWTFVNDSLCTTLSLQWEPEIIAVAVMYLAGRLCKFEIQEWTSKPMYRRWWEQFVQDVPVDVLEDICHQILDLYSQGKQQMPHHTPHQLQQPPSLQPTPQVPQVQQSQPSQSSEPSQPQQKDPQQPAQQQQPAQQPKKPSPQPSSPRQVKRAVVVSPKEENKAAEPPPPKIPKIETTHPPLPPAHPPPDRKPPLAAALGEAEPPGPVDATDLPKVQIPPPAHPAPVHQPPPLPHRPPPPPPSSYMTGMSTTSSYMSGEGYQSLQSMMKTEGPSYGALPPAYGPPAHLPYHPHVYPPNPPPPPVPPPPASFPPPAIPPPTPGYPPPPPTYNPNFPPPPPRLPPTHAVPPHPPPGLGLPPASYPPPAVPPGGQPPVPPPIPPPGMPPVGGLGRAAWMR
How it was run: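 MDA-MB-231 cells in L-15 with 10 % FBS were treated with compound at 9 concentrations for 6 h at 37 °C, 0 % CO2. In-Cell Western read phospho-Ser2 and total RNA polymerase II CTD on a Li-COR Odyssey; IC50 from 4-parameter dose-response fit.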

CDK12 [2] = target: T1, CDK12; assay: CDK12 kinase inhibitory activity assay (33P-ATP filter binding); format: biochemical
How it was run: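 Radiometric filter-binding read-out: after 20 min compound–enzyme/substrate pre-incubation across 9 concentrations, reaction started with ^33P-γ-ATP and run 120 min at room temperature. Filter-bound ^33P-substrate measured after 0.75 % phosphoric acid washes; remaining activity versus DMSO gives IC50.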

MKN1 = assay: Gastric cancer cell proliferation inhibitory activity (Cell Counting Kit-8), MKN1; format: cell-based; conditions: Homo sapiens, MKN-1; 72 hours, Cell Counting Kit-8, relative IC50
Procedure: Experiments were performed using six types of gastric cancer cell lines to measure the cell proliferation inhibitory ability of each Example compound. NCI-N87, SNU601, KATO-III, MKN1, and AGS cells were dispensed into a 96-well plate at 100 µL of cell suspension per well using RPMI1640 medium containing 10 % FBS and 1 % PS, followed by incubation in a cell incubator at 37 °C and 5 % CO2. HS746T cells were dispensed into a 96-well plate at 100 µL of cell suspension per well using DMEM medium containing 10 % FBS and 1 % PS, followed by incubation in a cell incubator at 37 °C and 5 % CO2. The next day, each Example compound dissolved and diluted in DMSO across 10 concentration ranges and a DMSO control group were treated on the cells for 72 hours. After completion of the compound treatment, 10 µL of Cell Counting Kit-8 (Dojindo) reagent was added to each well of the 96-well plate, followed by incubation for 2 hours. […] were measured after inserting the 96-well plate into an Envision plate reader […]. Relative IC50 values were calculated by fitting a dose-response curve using Graphpad PRISM software.
The gastric cancer cell proliferation inhibitory activities of the Example compounds measured by the method described above were evaluated according to the following criteria, and the results are presented in Table 20.

[3] = kinase reaction 120 minutes, 33P-gamma-ATP, read-out: CDK12 IC50

With `CN1CCN(c2cc(NCc3nc4ccc(F)c(F)c4[nH]3)c3ncc(C(F)(F)F)n3n2)CC1` [Example 8, N-((6,7-difluoro-1H-benzo[d]imidazol-2-yl)methyl)-6-(4-methylpiperazin-1-yl)-3-(trifluoromethyl)imidazo[1,2-b]pyridazin-8-amine] the pIC50 (MDA-MB-436 cells) was ≥ 7.30, the pIC50 (CDK12 [1]) was > 6.52 and the pIC50 (CDK12 [2]; [3]) was > 7.00. The pIC50 (MKN1) was ≥ 6.70.

For `CN1CCN(c2cc(NCc3nc4cc(Cl)c(Cl)cc4[nH]3)c3ncc(C(F)(F)F)n3n2)CC1` [Example 29, N-((5,6-dichloro-1H-benzo[d]imidazol-2-yl)methyl)-6-(4-methylpiperazin-1-yl)-3-(trifluoromethyl)imidazo[1,2-b]pyridazin-8-amine], the pIC50 (MDA-MB-436 cells) was ≥ 7.30, the pIC50 (CDK12 [1]) was > 6.52 and the pIC50 (CDK12 [2]; [3]) was > 7.00.

For `Nc1ncc(-c2cc(NCc3nc4cc(Cl)c(Cl)cc4[nH]3)c3ncc(C(F)(F)F)n3n2)cn1` [Example 40], the pIC50 (CDK12 [1]) was > 6.52, the pIC50 (CDK12 [2]) was > 7.00 and the pIC50 (MKN1) was ≥ 6.70.

With `N#CC1CN(c2cc(NCc3nc4cc(Cl)c(Cl)cc4[nH]3)c3ncc(C(F)(F)F)n3n2)C1` [Example 30, 1-(8-(((5,6-dichloro-1H-benzol[d]imidazol-2-yl)methyl)amino)-3-(trifluoromethyl)imidazo[1,2-b]pyridazin-6-yl)azetidine-3-carbonitrile] the pIC50 (MDA-MB-436 cells) was ≥ 7.30, the pIC50 (CDK12 [1]) was > 6.52 and the pIC50 (CDK12 [2]) was 6.30 to 7.00.
